The target in the assay is Serine/threonine-protein phosphatase PP1-alpha catalytic subunit (Homo sapiens) (UniProt P62136). As to the kind of experiment: PP1alpha phosphatase inhibition, phosphohistone substrate, late-stage follow-up, selectivity assay for PP5 inhibitor project, biochemical, 33P-phosphohistone, radiolabel, single concentration, round 5 (AID 624437). The following applies: purified PP1alpha, 33P-phosphohistone dephosphorylation, scintillation; at 50 µM; stronger effect = higher value.
Sequence of Serine/threonine-protein phosphatase PP1-alpha catalytic subunit (Homo sapiens) (P62136 whole entry, looked up): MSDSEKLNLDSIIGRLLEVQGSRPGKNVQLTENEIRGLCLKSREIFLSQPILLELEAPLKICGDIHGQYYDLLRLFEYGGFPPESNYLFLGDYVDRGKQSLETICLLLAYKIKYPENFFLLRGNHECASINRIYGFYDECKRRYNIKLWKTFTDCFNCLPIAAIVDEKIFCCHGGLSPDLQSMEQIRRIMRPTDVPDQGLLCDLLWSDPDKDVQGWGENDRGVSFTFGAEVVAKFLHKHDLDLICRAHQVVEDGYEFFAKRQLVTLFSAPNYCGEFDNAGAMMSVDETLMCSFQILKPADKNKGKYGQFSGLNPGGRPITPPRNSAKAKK

Calls of active or inactive are those of the source.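 The calls were made as follows: active = PP1 inhibition of at least 30% at 50 µM, though none qualified; inactive = the rest.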

Regarding `O=C(O)c1n[nH]nc1-c1ccccc1O`, the inhibition is 10.9% (inactive). On to `O=C(O)c1n[nH]nc1-c1ccc(F)cc1`, for which the inhibition is 10.4% (inactive). With `O=C(O)c1n[nH]nc1-c1cccc(F)c1` the figure was 10.3% (inactive); with `COc1ccc(-c2n[nH]nc2C(=O)O)cc1`, 1.04% (inactive); with `O=C(O)c1n[nH]nc1-c1ccccc1F`, 20.5% (inactive).

With `COc1cccc(-c2n[nH]nc2C(=O)O)c1`, the inhibition is 11.1% (inactive). Turning to `COc1ccccc1-c1n[nH]nc1C(=O)O`, the inhibition is 23.3% (inactive).

The values are drawn from PubChem BioAssay AID624437 (The Scripps Research Institute Molecular Screening Center, 2012).
